Laboratory results: US5241047A, “Synthetic peptides and mixtures thereof for detecting HIV antibodies” (BioChem Pharma Inc., priority 1990, dated 1993)
Positions of bridges follow the written chain, without caps; N, C: chain ends. Residues, ends and D or L forms follow the SMILES beside them.

Experiments:
[1] = tested on: HIV-1 antibodies; details: cited from earlier work
[2] = tested on: HIV-2 antibodies; assay: ELISA with peptide-coated wells, HIV-2 seropositive plasma pool serially diluted; format: binding, human; details: Test 314
Protocol: (§1) A preferred convenient and classical technique for the determination of antibodies against HIV-1 or HIV-2 using a peptide or a peptide mixture of the present invention is an enzyme-linked immunosorbent assay (ELISA). In this assay, for example, a peptide, peptide mixture or combination of the present invention is adsorbed onto, or covalently coupled to, the wells of a microtiter plate. The wells are then treated with the sera or analyte to be tested. After washing, antihuman IgG or antihuman IgM labeled with peroxidase is added to the wells. The determination of the peroxidase is performed with a corresponding substrate, e.g., with o-phenylene diamine. Without departing from the usefulness of the illustrative assay, the peroxidase can be exchanged by another label, e.g., by a radioactive, fluorescence chemiluminescence or infrared emitting label.
(§2) O.D. Values were obtained at 450 nm and the blank values measured with the sample dilution buffer were not subtracted.
(§3) Samples NEIA-2*2, BBI-1-162 to 168, 87B140, 87L139, 87V103 are all negative for HIV antibodies. Sample LSPQ-S9-1 is an early seroconverter (HIV-1). The series labeled CAP-113 to CAP-120 corresponds to a pool of seven HIV-1 positive plasma samples serially diluted with an HIV-negative plasma. CAP-113 is the pool diluted 50-fold with the HIV-negative plasma; CAP-114 is diluted 100-fold; CAP-115 is diluted 200-fold; etc. Similarly, the series labeled CAP-222 to CAP-230 corresponds to a pool of seven HIV-2 confirmed seropositive plasma samples. CAP-222 is diluted by 50 with an HIV-negative plasma; CAP-223 by 100; etc. Before the assay is done, each sample, including the CAP-series, is further diluted by 50 with the sample dilution buffer. In these tests, the cut-off for seropositivity is defined as the sum of the O.D. value for sample NEIA-2*2 plus 0.100.
(§4) Each well of the microtiter plate is saturated with 100 μl of a solution containing a peptide or mixture of peptides (5 μg/ml) and left overnight. The wells are emptied and washed twice with a washing buffer (Tris, 0.043M; NaCl, 0.5M; thimerosal, 0.01% w/v; Tween 20, 0.05% v/v; pH 7.4). The wells are then saturated with 0.35 ml of washing buffer for 1 hr. at 37° C. and washed once with the same buffer. Serum samples to be analyzed are diluted with specimen buffer (washing buffer plus casein, 0.05% w/v). The wells are rinsed with washing buffer prior to the addition of the diluted serum sample (0.1 ml). These are left to incubate for 1 hr. at room temperature. The wells are then emptied, washed twice rapidly and then once for two minutes with washing buffer. […] The wells are then emptied and washed twice rapidly with washing buffer and then five times in which the buffer was in contact with the well 2 minutes per washing. The substrate solution (3,3',5,5'-tetramethylbenzidine, 8 mg per ml of DMSO) is diluted with 100 volumes 0.1M citrate-acetate buffer, pH 5.6 containing 0.1% v/v of 30% H2 O2 and added to each well (0.1 ml per well). After 10 minutes the contents of each well is treated with 0.1 ml 2N H2 SO4 and the optical density read at 450 nm. All determinations are done in duplicate.
(§5) Peptide cocktails were prepared by mixing together equal volumes of two peptide solutions each at 10 ug/ml. One cocktail used peptides BCH-87c and BCH-202c and the other cocktail was a mixture of BCH-87ck and BCH-202ck. Each cocktail was used to coat two series of plates as described earlier.

[3] = tested on: HIV-1 antibodies; assay: ELISA with peptide-coated wells, HIV-1 antibody positive samples (diluted plasma pool, seroconversion samples); format: binding, human
Protocol: as §1, §2, §3
as §4, with “duplicate. […]” for “duplicate.”

[4] = tested on: HIV antibodies; assay: ELISA with peptide-coated wells, samples negative for HIV antibodies or not described; format: binding, human
Protocol: as §1, §2, §3, §4, §5

SGKLICTTAVPWNAS [short synthetic peptide spanning residues 606 to 620 of gp41 (HIV-1)]
sensitivity ([1]; U.S. Ser. No. 120,027, 6 of 57 confirmed positive not detected): 89% | specificity ([1]; U.S. Ser. No. 120,027): 63/63

SGKLIC
immunoreactivity with HIV-1 positive sera ([1]; Gnann et al. 1987, 22 HIV-1 positive sera tested): not immunoreactive

CC[C@H](C)[C@H](NC(=O)CNC(=O)[C@H](CC(C)C)NC(=O)[C@H](CC(C)C)NC(=O)[C@H](CCC(N)=O)NC(=O)[C@H](CCC(N)=O)NC(=O)[C@H](CC(=O)O)NC(=O)[C@H](CCCCN)NC(=O)[C@H](CC(C)C)NC(=O)[C@H](Cc1ccc(O)cc1)NC(=O)[C@H](CCCNC(=N)N)NC(=O)[C@H](CCC(=O)O)NC(=O)[C@@H](NC(=O)[C@H](C)NC(=O)[C@H](CC(C)C)NC(=O)[C@@H](NC(=O)[C@@H](N)CCCCN)[C@@H](C)CC)C(C)C)C(=O)N[C@@H](Cc1c[nH]c2ccccc12)C(=O)NCC(=O)N[C@H]1CSSC[C@@H](C(=O)N[C@H](C(=O)N[C@H](C(=O)N[C@@H](C)C(=O)N[C@H](C(=O)N2CCC[C@H]2C(=O)N[C@@H](Cc2c[nH]c3ccccc23)C(=O)N[C@@H](CC(N)=O)C(=O)N[C@@H](C)C(=O)N[C@@H](CO)C(=O)O)C(C)C)[C@@H](C)O)[C@@H](C)O)NC(=O)[C@H]([C@@H](C)CC)NC(=O)[C@H](CC(C)C)NC(=O)[C@H](CCCCN)NC(=O)CNC(=O)[C@H](CO)NC1=O [BCH-87ck] (H-KILAVERYLKDQQLLGIWGCSGKLICTTAVPWNAS-OH; disulfide 20-26)
O.D. 450 nm ([2]; sample CAP-222 (HIV-2 positive plasma pool diluted by 50)): 0.069 | O.D. 450 nm ([2]; sample CAP-223 (HIV-2 positive pool diluted by 100)): 0.060 | O.D. 450 nm ([2]; sample CAP-224 (HIV-2 positive pool, serial dilution)): 0.054 | O.D. 450 nm ([2]; sample CAP-225 (HIV-2 positive pool, serial dilution)): 0.050 | O.D. 450 nm ([2]; sample CAP-226 (HIV-2 positive pool, serial dilution)): 0.050 | O.D. 450 nm ([2]; sample CAP-227 (HIV-2 positive pool, serial dilution)): 0.043 | O.D. 450 nm ([2]; sample CAP-228 (HIV-2 positive pool, serial dilution)): 0.042 | O.D. 450 nm ([2]; sample CAP-230 (HIV-2 positive pool, serial dilution)): 0.049 | O.D. 450 nm ([3]; Test 314, sample CAP-113 (HIV-1 positive plasma pool diluted 50-fold)): > 2.8 | O.D. 450 nm ([3]; Test 314, sample CAP-114 (HIV-1 positive pool diluted 100-fold)): > 2.8 | O.D. 450 nm ([3]; Test 314, sample CAP-115 (HIV-1 positive pool diluted 200-fold)): 2.593 | O.D. 450 nm ([3]; Test 314, sample CAP-116 (HIV-1 positive pool, serial dilution)): 1.871 | O.D. 450 nm ([3]; Test 314, sample CAP-117 (HIV-1 positive pool, serial dilution)): 1.158 | O.D. 450 nm ([3]; Test 314, sample CAP-118 (HIV-1 positive pool, serial dilution)): 0.679 | O.D. 450 nm ([3]; Test 314, sample CAP-119 (HIV-1 positive pool, serial dilution)): 0.392 | O.D. 450 nm ([3]; Test 314, sample CAP-120 (HIV-1 positive pool, serial dilution)): 0.229 | O.D. 450 nm ([3]; Test 350, sample CAP-10 (progressively higher dilutions)): > 2.8 | O.D. 450 nm ([3]; Test 350, sample CAP-11 (progressively higher dilutions)): > 2.8 | O.D. 450 nm ([3]; Test 350, sample CAP-12 (progressively higher dilutions)): 2.735 | O.D. 450 nm ([3]; Test 350, sample CAP-13 (progressively higher dilutions)): 1.676 | O.D. 450 nm ([3]; Test 350, sample CAP-14 (progressively higher dilutions)): 1.089 | O.D. 450 nm ([3]; Test 350, sample CAP-15 (progressively higher dilutions)): 0.643 | O.D. 450 nm ([3]; Test 350, sample CAP-16 (progressively higher dilutions)): 0.274 | O.D. 450 nm ([3]; Test 350, sample CAP-17 (progressively higher dilutions)): 0.191 | O.D. 450 nm ([3]; Test 350, sample CAP-18 (progressively higher dilutions)): 0.114 | O.D. 450 nm ([3]; Test 350, sample CAP-19 (progressively higher dilutions)): 0.053 | O.D. 450 nm ([4]; Test 314, sample BBI-1-162 (negative for HIV antibodies)): 0.015 | O.D. 450 nm ([4]; Test 314, sample BBI-1-169 (not described)): 0.090 | O.D. 450 nm ([4]; Test 314, sample BBI-1-172 (not described)): 0.019 | O.D. 450 nm ([4]; Test 314, sample NEIA-2*2 (negative for HIV antibodies)): 0.050 | O.D. 450 nm ([4]; Test 350, sample 2-87-L-139 (negative for HIV antibodies)): 0.409 | O.D. 450 nm ([4]; Test 350, sample 2-87-V-103 (negative for HIV antibodies)): 0.015 | O.D. 450 nm ([4]; Test 350, sample 89-D-307 (not described)): 0.022 | O.D. 450 nm ([4]; Test 350, sample NEIA-2*2 (negative for HIV antibodies)): 0.034
